Patent US10004701B2, “Methods and compositions for treating infection” (UNIVERSITY OF ROCHESTER, priority 2012, dated 2018)
Structures can show the parent of a compound that is named as a salt. Where two headings read alike, the source gives them in different places. Where a SMILES comes first, the peptide text is derived from it. Bridges are numbered along the chain shown (N, C = ends). [ ]: non-standard residue; d: D form. The star is where a group is joined. Ileψ(thiazoline)Cys = CC[C@H](C)[C@H](N)C1=N[C@H](C(=O)*)CS1; dOrn = NCCC[C@@H](N)C(=O)O

Legend:
Experiment in all cases: AK assay 384-well format, Prestwick library screening
[1] = system: S. aureus strain USA300-0114; type: cell-based, Staphylococcus aureus; details: 50 μM final drug concentration; for fold induction at 50 µM: Staphylococcus aureus, USA300, 3 h
P. aeruginosa = type: cell-based, Pseudomonas aeruginosa; details: 50 μM final drug concentration; for fold induction at 50 µM: Pseudomonas aeruginosa, 3 h
E. coli = type: cell-based, Escherichia coli; details: 50 μM final drug concentration; for fold induction at 50 µM: Escherichia coli, 3 h
E. faecium = type: cell-based, Enterococcus faecium; details: 50 μM final drug concentration; for fold induction at 50 µM: Enterococcus faecium, 3 h
K. pneumoniae = type: cell-based, Klebsiella pneumoniae; details: 50 μM final drug concentration; for fold induction at 50 µM: Klebsiella pneumoniae, 3 h
[2] = system: A. baumannii strain 98-37-09; type: cell-based, Acinetobacter baumannii; details: 50 μM final drug concentration; for fold induction at 50 µM: Acinetobacter baumannii, 983709, 3 h
E. cloacae = type: cell-based, Enterobacter cloacae; details: 50 μM final drug concentration; for fold induction at 50 µM: Enterobacter cloacae, 3 h
[3] = cutoff for positive-scoring molecules 3-fold increase
[4] = planktonic, cutoff for positive-scoring molecules 3-fold increase

## C[C@H]1NC(=O)NC1=O [Methylhydantoin-5-(D)]
[1]; [3]
  AK-based Prestwick Library Screening Results, S. aureus (fold increase in extracellular AK activity): 1.2
P. aeruginosa; [3]
  AK-based Prestwick Library Screening Results, P. aeruginosa (fold increase in extracellular AK activity): 1.2
E. coli; […]
  AK-based Prestwick Library Screening Results, E. coli (fold increase in extracellular AK activity): 1.2
E. faecium; [3]
  AK-based Prestwick Library Screening Results, E. faecium (fold increase in extracellular AK activity): 1.0
K. pneumoniae; [3]
  AK-based Prestwick Library Screening Results, K. pneumoniae (fold increase in extracellular AK activity): 1.1
[2]; [3]
  AK-based Prestwick Library Screening Results, A. baumannii (fold increase in extracellular AK activity): 1.3
E. cloacae; [3]
  AK-based Prestwick Library Screening Results, E. cloacae (fold increase in extracellular AK activity): 1.5

## CN1CCC2(C)c3cc(O)ccc3N(C)C12.O=C(O)/C=C/C(=O)O (single isomer, unassigned; (-)) [(−)-Eseroline fumarate salt]
[1]; planktonic S. aureus, […]
  AK-based Prestwick library screening result, S. aureus (fold increase in extracellular AK activity): 0.9
P. aeruginosa; planktonic P. aeruginosa, […]
  AK-based Prestwick library screening result, P. aeruginosa (fold increase in extracellular AK activity): 0.8
E. coli; planktonic E. coli, […]
  AK-based Prestwick library screening result, E. coli (fold increase in extracellular AK activity): 1.0
E. faecium; planktonic E. faecium, […]
  AK-based Prestwick library screening result, E. faecium (fold increase in extracellular AK activity): 1.1
K. pneumoniae; planktonic K. pneumoniae, […]
  AK-based Prestwick library screening result, K. pneumoniae (fold increase in extracellular AK activity): 0.9
[2]; planktonic A. baumannii, […]
  AK-based Prestwick library screening result, A. baumannii (fold increase in extracellular AK activity): 0.9
E. cloacae; planktonic E. cloacae, […]
  AK-based Prestwick library screening result, E. cloacae (fold increase in extracellular AK activity): 1.4

## CC[C@H](C)[C@H](N)C1=N[C@H](C(=O)N[C@@H](CC(C)C)C(=O)N[C@H](CCC(=O)O)C(=O)N[C@H](C(=O)N[C@H]2CCCCNC(=O)[C@H](CC(N)=O)NC(=O)[C@@H](CC(=O)O)NC(=O)[C@H](Cc3cnc[nH]3)NC(=O)[C@@H](Cc3ccccc3)NC(=O)[C@H]([C@@H](C)CC)NC(=O)[C@@H](CCCN)NC2=O)[C@@H](C)CC)CS1 [Bacitracin] ({Ileψ(thiazoline)Cys}-L[dE]IK[dOrn]I[dF]H[dD]N; lactam 4-C)
[1]; planktonic, cutoff for positive-scoring molecules 3-fold increase, read-out: AK-based Prestwick Library Screening Results, S. aureus (fold increase in extracellular AK activity)
  fold induction at 50 µM: 0.4
P. aeruginosa; planktonic, cutoff for positive-scoring molecules 3-fold increase, read-out: AK-based Prestwick Library Screening Results, P. aeruginosa (fold increase in extracellular AK activity)
  fold induction at 50 µM: 0.8
E. coli; planktonic, cutoff for positive-scoring molecules 3-fold increase, read-out: AK-based Prestwick Library Screening Results, E. coli (fold increase in extracellular AK activity)
  fold induction at 50 µM: 1
E. faecium; planktonic, cutoff for positive-scoring molecules 3-fold increase, read-out: AK-based Prestwick Library Screening Results, E. faecium (fold increase in extracellular AK activity)
  fold induction at 50 µM: 1.3
K. pneumoniae; planktonic, cutoff for positive-scoring molecules 3-fold increase, read-out: AK-based Prestwick Library Screening Results, K. pneumoniae (fold increase in extracellular AK activity)
  fold induction at 50 µM: 0.8
[2]; planktonic, cutoff for positive-scoring molecules 3-fold increase, read-out: AK-based Prestwick Library Screening Results, A. baumannii (fold increase in extracellular AK activity)
  fold induction at 50 µM: 1.1
E. cloacae; planktonic, cutoff for positive-scoring molecules 3-fold increase, read-out: AK-based Prestwick Library Screening Results, E. cloacae (fold increase in extracellular AK activity)
  fold induction at 50 µM: 1.2

## Nc1nc(=O)c2c([nH]1)NCC(CNc1ccc(C(=O)N[C@@H](CCC(=O)[O-])C(=O)[O-])cc1)N2C=O.[Ca+2] (stereo partly drawn) [Folinic acid calcium salt]
[1]; [4]
  AK-based Prestwick Library Screening Results, S. aureus (fold increase in extracellular AK activity): 0.7
P. aeruginosa; [4]
  AK-based Prestwick Library Screening Results, P. aeruginosa (fold increase in extracellular AK activity): 0.6
E. coli; [4]
  AK-based Prestwick Library Screening Results, E. coli (fold increase in extracellular AK activity): 0.7
E. faecium; [4]
  AK-based Prestwick Library Screening Results, E. faecium (fold increase in extracellular AK activity): 1.0
K. pneumoniae; [4]
  AK-based Prestwick Library Screening Results, K. pneumoniae (fold increase in extracellular AK activity): 0.6
[2]; [4]
  AK-based Prestwick Library Screening Results, A. baumannii (fold increase in extracellular AK activity): 0.7
E. cloacae; [4]
  AK-based Prestwick Library Screening Results, E. cloacae (fold increase in extracellular AK activity): 0.7

## CC1=CC(=O)C2=C(C)CC[C@@H]3[C@H](OC(=O)[C@H]3C)[C@@H]12 [Leucomisine]
[1]; planktonic S. aureus, positive cutoff 3-fold increase
  AK-based Prestwick library screening result, S. aureus (fold increase in extracellular AK activity): 0.9
P. aeruginosa; planktonic P. aeruginosa, positive cutoff 3-fold increase
  AK-based Prestwick library screening result, P. aeruginosa (fold increase in extracellular AK activity): 1.1
E. coli; planktonic E. coli, […]
  AK-based Prestwick library screening result, E. coli (fold increase in extracellular AK activity): 1.3
E. faecium; planktonic E. faecium, positive cutoff 3-fold increase
  AK-based Prestwick library screening result, E. faecium (fold increase in extracellular AK activity): 1.1
K. pneumoniae; planktonic K. pneumoniae, positive cutoff 3-fold increase
  AK-based Prestwick library screening result, K. pneumoniae (fold increase in extracellular AK activity): 1.0
[2]; planktonic A. baumannii, positive cutoff 3-fold increase
  AK-based Prestwick library screening result, A. baumannii (fold increase in extracellular AK activity): 1.0
E. cloacae; planktonic E. cloacae, positive cutoff 3-fold increase
  AK-based Prestwick library screening result, E. cloacae (fold increase in extracellular AK activity): 1.6

## CC(=O)c1ccc2c(c1)N(CCCN(C)C)c1ccccc1S2.O=C(O)/C=C\C(=O)O [Acetopromazine maleate salt]
[1]; planktonic S. aureus, cutoff for positive-scoring molecules 3-fold increase
  AK-based Prestwick Library Screening Results, S. aureus (increase in extracellular AK activity): 0.8
P. aeruginosa; planktonic P. aeruginosa, cutoff for positive-scoring molecules 3-fold increase
  AK-based Prestwick Library Screening Results, P. aeruginosa (increase in extracellular AK activity): 0.7
E. coli; planktonic E. coli, cutoff for positive-scoring molecules 3-fold increase
  AK-based Prestwick Library Screening Results, E. coli (increase in extracellular AK activity): 0.8
E. faecium; planktonic E. faecium, cutoff for positive-scoring molecules 3-fold increase
  AK-based Prestwick Library Screening Results, E. faecium (increase in extracellular AK activity): 1.0
K. pneumoniae; planktonic K. pneumoniae, cutoff for positive-scoring molecules 3-fold increase
  AK-based Prestwick Library Screening Results, K. pneumoniae (increase in extracellular AK activity): 0.6
[2]; planktonic A. baumannii, cutoff for positive-scoring molecules 3-fold increase
  AK-based Prestwick Library Screening Results, A. baumannii (increase in extracellular AK activity): 0.8
E. cloacae; planktonic E. cloacae, cutoff for positive-scoring molecules 3-fold increase
  AK-based Prestwick Library Screening Results, E. cloacae (increase in extracellular AK activity): 0.8

## CO/N=C(\C(=O)N[C@@H]1C(=O)N2C(C(=O)O)=C(C[N+]3(C)CCCC3)CS[C@H]12)c1csc(N)n1 [Cefepime hydrochloride]
[1]; planktonic S. aureus, positive cutoff 3-fold increase, read-out: AK-based Prestwick library screening result, S. aureus (fold increase in extracellular AK activity)
  fold induction at 50 µM: 3.1
P. aeruginosa; planktonic P. aeruginosa, positive cutoff 3-fold increase, read-out: AK-based Prestwick library screening result, P. aeruginosa (fold increase in extracellular AK activity)
  fold induction at 50 µM: 15.6
E. coli; planktonic E. coli, positive cutoff 3-fold increase, read-out: AK-based Prestwick library screening result, E. coli (fold increase in extracellular AK activity)
  fold induction at 50 µM: 19.3
E. faecium; planktonic E. faecium, positive cutoff 3-fold increase, read-out: AK-based Prestwick library screening result, E. faecium (fold increase in extracellular AK activity)
  fold induction at 50 µM: 1
K. pneumoniae; planktonic K. pneumoniae, positive cutoff 3-fold increase, read-out: AK-based Prestwick library screening result, K. pneumoniae (fold increase in extracellular AK activity)
  fold induction at 50 µM: 4.9
[2]; planktonic A. baumannii, positive cutoff 3-fold increase, read-out: AK-based Prestwick library screening result, A. baumannii (fold increase in extracellular AK activity)
  fold induction at 50 µM: 3.4
E. cloacae; planktonic E. cloacae, positive cutoff 3-fold increase, read-out: AK-based Prestwick library screening result, E. cloacae (fold increase in extracellular AK activity)
  fold induction at 50 µM: 1.9

## CN(C)CCCC1(c2ccc(F)cc2)OCc2cc(C#N)ccc21 (stereo not drawn) [Citalopram Hydrobromide]
[1]; cutoff for positive-scoring molecules 3-fold increase, read-out: AK-based Prestwick Library Screening Results, S. aureus (fold increase in extracellular AK activity)
  fold induction at 50 µM: 1
P. aeruginosa; cutoff for positive-scoring molecules 3-fold increase, read-out: AK-based Prestwick Library Screening Results, P. aeruginosa (fold increase in extracellular AK activity)
  fold induction at 50 µM: 1.2
E. coli; cutoff for positive-scoring molecules 3-fold increase, read-out: AK-based Prestwick Library Screening Results, E. coli (fold increase in extracellular AK activity)
  fold induction at 50 µM: 1
E. faecium; cutoff for positive-scoring molecules 3-fold increase, read-out: AK-based Prestwick Library Screening Results, E. faecium (fold increase in extracellular AK activity)
  fold induction at 50 µM: 1
K. pneumoniae; cutoff for positive-scoring molecules 3-fold increase, read-out: AK-based Prestwick Library Screening Results, K. pneumoniae (fold increase in extracellular AK activity)
  fold induction at 50 µM: 0.9
[2]; cutoff for positive-scoring molecules 3-fold increase, read-out: AK-based Prestwick Library Screening Results, A. baumannii (fold increase in extracellular AK activity)
  fold induction at 50 µM: 0.9
E. cloacae; cutoff for positive-scoring molecules 3-fold increase, read-out: AK-based Prestwick Library Screening Results, E. cloacae (fold increase in extracellular AK activity)
  fold induction at 50 µM: 1.5

## Nc1c(Br)cc(Br)cc1CN[C@H]1CC[C@H](O)CC1 [Ambroxol hydrochloride]
[1]; planktonic S. aureus, cutoff for positive-scoring molecules 3-fold increase, read-out: AK-based Prestwick Library Screening Results, S. aureus (increase in extracellular AK activity)
  fold induction at 50 µM: 1
P. aeruginosa; planktonic P. aeruginosa, cutoff for positive-scoring molecules 3-fold increase, read-out: AK-based Prestwick Library Screening Results, P. aeruginosa (increase in extracellular AK activity)
  fold induction at 50 µM: 1.2
E. coli; planktonic E. coli, cutoff for positive-scoring molecules 3-fold increase, read-out: AK-based Prestwick Library Screening Results, E. coli (increase in extracellular AK activity)
  fold induction at 50 µM: 1
E. faecium; planktonic E. faecium, cutoff for positive-scoring molecules 3-fold increase, read-out: AK-based Prestwick Library Screening Results, E. faecium (increase in extracellular AK activity)
  fold induction at 50 µM: 1
K. pneumoniae; planktonic K. pneumoniae, cutoff for positive-scoring molecules 3-fold increase, read-out: AK-based Prestwick Library Screening Results, K. pneumoniae (increase in extracellular AK activity)
  fold induction at 50 µM: 1
[2]; planktonic A. baumannii, cutoff for positive-scoring molecules 3-fold increase, read-out: AK-based Prestwick Library Screening Results, A. baumannii (increase in extracellular AK activity)
  fold induction at 50 µM: 1.2
E. cloacae; planktonic E. cloacae, cutoff for positive-scoring molecules 3-fold increase, read-out: AK-based Prestwick Library Screening Results, E. cloacae (increase in extracellular AK activity)
  fold induction at 50 µM: 1.5
